Source: US6737383B1, “Herbicidal oxadiazolidines” (priority 1999, dated 2004)

Experiments:
bedstraw = assay: Test B pre/postemergence bedstraw; format: in vivo, Galium aparine
Method in brief: (§1)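 Herbicidal effect was estimated by eye on a ten-point control scale after plants spent twelve to sixteen days in a greenhouse following soil or foliar treatment. Foliar sprays targeted plants at one to four leaves; all doses were formulated in a non-phytotoxic solvent with surfactant.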

blackgrass = assay: Test B pre/postemergence blackgrass; format: in vivo, Alopecurus myosuroides
Method in brief: as §1

surinam grass = assay: Test B pre/postemergence surinam grass; format: in vivo, Brachiaria decumbens
Method in brief: as §1

cocklebur = assay: Test B pre/postemergence cocklebur; format: in vivo, Xanthium strumarium; details: for Cocklebur plant response rating: Postemergence; for Plant response rating, Cocklebur: Preemergence
Method in brief: as §1

crabgrass = assay: Test B pre/postemergence crabgrass; format: in vivo, Digitaria sanguinalis
Method in brief: as §1

giant foxtail = assay: Test B pre/postemergence giant foxtail; format: in vivo, Setaria faberii
Method in brief: as §1

morningglory = assay: Test B pre/postemergence morningglory; format: in vivo, Ipomoea hederacea
Method in brief: as §1

pigweed = assay: Test B pre/postemergence pigweed; format: in vivo, Amaranthus retroflexus
Method in brief: as §1

sugar beet = assay: Test B pre/postemergence sugar beet; format: in vivo, Beta vulgaris
Method in brief: as §1

velvetleaf = assay: Test B pre/postemergence velvetleaf; format: in vivo, Abutilon theophrasti
Method in brief: as §1

wheat = assay: Test B pre/postemergence wheat; format: in vivo, Triticum aestivum
Method in brief: as §1

wild oat = assay: Test B pre/postemergence wild oat; format: in vivo, Avena fatua
Method in brief: as §1

purple nutsedge = assay: Test B pre/postemergence purple nutsedge; format: in vivo, Cyperus rotundus
Method in brief: as §1

rice = assay: Test B flood test rice; format: in vivo, Oryza sativa
Method in brief: (§2)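 Flood test on plants grown to the 2-leaf stage; treated plants kept in greenhouse twelve to sixteen days, then visually rated against controls on a 0 (no effect) to 10 (complete control) scale.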

duck salad = assay: Test B flood test duck salad; format: in vivo, Heteranthera limosa
Method in brief: as §2

bamyardgrass = assay: Test B flood test barnyardgrass; format: in vivo, Echinochloa crus-galli
Method in brief: as §2

[1] = Postemergence, Rate 62 g/ha, scale 0 to 10, 0 is no effect, 10 is complete control
[2] = Postemergence, Rate 250 g/ha, scale 0 to 10, 0 no effect, 10 complete control
[3] = Preemergence, Rate 62 g/ha, scale 0 to 10, 0 is no effect, 10 is complete control
[4] = Preemergence, Rate 125 g/ha, scale 0 to 10 (0 no effect, 10 complete control)
[5] = Preemergence, Rate 250 g/ha, scale of 0 to 10 where 0 is no effect and 10 is complete control
[6] = Preemergence, Rate 500 g/ha, scale 0 (no effect) to 10 (complete control)
[7] = Rate 125 g/ha, Postemergence, scale 0 to 10, 0 no effect, 10 complete control
[8] = Rate 500 g/ha, Postemergence, 0 to 10 scale (0 no effect, 10 complete control)
[9] = Rate 62 g/ha, scale 0 to 10, 0 is no effect, 10 is complete control
[10] = Rate 125 g/ha, Postemergence section (flood test species), scale 0 to 10, 0 no effect, 10 complete control
[11] = Rate 500 g/ha, Postemergence section of Table B, 0 to 10 scale (0 no effect, 10 complete control)
[12] = flood test, listed under Postemergence, Rate 250 g/ha, scale 0 to 10, 0 no effect, 10 complete control

Cc1ccc(-n2c(=O)on(C(=O)N(c3ccc(F)cc3F)C(C)C)c2=O)c(C)c1 [Compound 24]
Bedstraw plant response rating (bedstraw; [1]): 2 | Bedstraw plant response rating (bedstraw; [2]): 8 | Plant response rating, Bedstraw (bedstraw; [3]): 0 | Plant response rating, Bedstraw (bedstraw; [4]): 0 | Plant response rating, Bedstraw (bedstraw; [5]): 0 | Bedstraw plant response rating (bedstraw; [6]): 0 | Bedstraw plant response rating (bedstraw; [7]): 3 | Bedstraw plant response rating (bedstraw; [8]): 8 | Blackgrass plant response rating (blackgrass; [1]): 0 | Blackgrass plant response rating (blackgrass; [2]): 3 | Plant response rating, Blackgrass (blackgrass; [3]): 0 | Plant response rating, Blackgrass (blackgrass; [4]): 1 | Plant response rating, Blackgrass (blackgrass; [5]): 4 | Blackgrass plant response rating (blackgrass; [6]): 4 | Blackgrass plant response rating (blackgrass; [7]): 1 | Blackgrass plant response rating (blackgrass; [8]): 6 | B. signalgrass plant response rating (surinam grass; [1]): 0 | B. signalgrass plant response rating (surinam grass; [2]): 3 | Plant response rating, B. signalgrass (surinam grass; [3]): 0 | Plant response rating, B. signalgrass (surinam grass; [4]): 4 | Plant response rating, B. signalgrass (surinam grass; [5]): 4 | B. signalgrass plant response rating (surinam grass; [6]): 6 | B. signalgrass plant response rating (surinam grass; [7]): 3 | B. signalgrass plant response rating (surinam grass; [8]): 3 | Cocklebur plant response rating (cocklebur; [9]): 0 | Cocklebur plant response rating (cocklebur; Rate 250 g/ha, scale 0 to 10, 0 no effect, 10 complete control): 1 | Plant response rating, Cocklebur (cocklebur; [9]): 0 | Plant response rating, Cocklebur (cocklebur; Rate 125 g/ha, scale 0 to 10 (0 no effect, 10 complete control)): 0 | Plant response rating, Cocklebur (cocklebur; Rate 250 g/ha, scale of 0 to 10 where 0 is no effect and 10 is complete control): 0 | Cocklebur plant response rating (cocklebur; Rate 125 g/ha, scale 0 to 10, 0 no effect, 10 complete control): 0 | Cocklebur plant response rating (cocklebur; Rate 500 g/ha, 0 to 10 scale (0 no effect, 10 complete control)): 2 | Crabgrass plant response rating (crabgrass; [1]): 2 | Crabgrass plant response rating (crabgrass; [2]): 9 | Plant response rating, Crabgrass (crabgrass; [3]): 0 | Plant response rating, Crabgrass (crabgrass; [4]): 6 | Plant response rating, Crabgrass (crabgrass; [5]): 9 | Crabgrass plant response rating (crabgrass; [6]): 10 | Crabgrass plant response rating (crabgrass; [7]): 8 | Crabgrass plant response rating (crabgrass; [8]): 10 | Giant foxtail plant response rating (giant foxtail; [1]): 0 | Giant foxtail plant response rating (giant foxtail; [2]): 3 | Plant response rating, Giant foxtail (giant foxtail; [3]): 6 | Plant response rating, Giant foxtail (giant foxtail; [4]): 7 | Plant response rating, Giant foxtail (giant foxtail; [5]): 9 | Giant foxtail plant response rating (giant foxtail; [6]): 9 | Giant foxtail plant response rating (giant foxtail; [7]): 2 | Giant foxtail plant response rating (giant foxtail; [8]): 8 | Morningglory plant response rating (morningglory; [1]): 9 | Morningglory plant response rating (morningglory; [2]): 10 | Plant response rating, Morningglory (morningglory; [3]): 0 | Plant response rating, Morningglory (morningglory; [4]): 0 | Plant response rating, Morningglory (morningglory; [5]): 0 | Morningglory plant response rating (morningglory; [6]): 0 | Morningglory plant response rating (morningglory; [7]): 9 | Redroot pigweed plant response rating (pigweed; [1]): 0 | Redroot pigweed plant response rating (pigweed; [2]): 6 | Plant response rating, Redroot pigweed (pigweed; [3]): 2 | Plant response rating, Redroot pigweed (pigweed; [4]): 6 | Plant response rating, Redroot pigweed (pigweed; [5]): 6 | Redroot pigweed plant response rating (pigweed; [6]): 9 | Redroot pigweed plant response rating (pigweed; [7]): 2 | Redroot pigweed plant response rating (pigweed; [8]): 6 | Sugarbeets plant response rating (sugar beet; [1]): 0 | Sugarbeets plant response rating (sugar beet; [2]): 0 | Plant response rating, Sugarbeets (sugar beet; [3]): 0 | Plant response rating, Sugarbeets (sugar beet; [4]): 3 | Plant response rating, Sugarbeets (sugar beet; [5]): 4 | Sugarbeets plant response rating (sugar beet; [6]): 9 | Sugarbeets plant response rating (sugar beet; [7]): 0 | Velvetleaf plant response rating (velvetleaf; [1]): 0 | Velvetleaf plant response rating (velvetleaf; [2]): 0 | Plant response rating, Velvetleaf (velvetleaf; [3]): 0 | Plant response rating, Velvetleaf (velvetleaf; [4]): 0 | Plant response rating, Velvetleaf (velvetleaf; [5]): 0 | Velvetleaf plant response rating (velvetleaf; [6]): 0 | Velvetleaf plant response rating (velvetleaf; [7]): 0 | Wheat plant response rating (wheat; [1]): 0 | Wheat plant response rating (wheat; [2]): 0 | Plant response rating, Wheat (wheat; [3]): 0 | Plant response rating, Wheat (wheat; [4]): 0 | Plant response rating, Wheat (wheat; [5]): 0 | Wheat plant response rating (wheat; [6]): 0 | Wheat plant response rating (wheat; [7]): 0 | Wild oats plant response rating (wild oat; [1]): 0 | Wild oats plant response rating (wild oat; [2]): 0 | Plant response rating, Wild oats (wild oat; [4]): 0 | Plant response rating, Wild oats (wild oat; [5]): 0 | Wild oats plant response rating (wild oat; [6]): 2 | Wild oats plant response rating (wild oat; [7]): 0 | Nutsedge plant response rating (purple nutsedge; [1]): 0 | Nutsedge plant response rating (purple nutsedge; [2]): 0 | Plant response rating, Nutsedge (purple nutsedge; [3]): 0 | Plant response rating, Nutsedge (purple nutsedge; [4]): 0 | Plant response rating, Nutsedge (purple nutsedge; [5]): 0 | Nutsedge plant response rating (purple nutsedge; [6]): 0 | Nutsedge plant response rating (purple nutsedge; [7]): 0 | Nutsedge plant response rating (purple nutsedge; [8]): 0 | Rice plant response rating (rice; [1]): 0 | Rice plant response rating (rice; [10]): 0 | Rice plant response rating (rice; [11]): 0 | Rice plant response rating (rice; [12]): 0 | Ducksalad plant response rating (duck salad; [1]): 0 | Ducksalad plant response rating (duck salad; [10]): 0 | Ducksalad plant response rating (duck salad; [11]): 0 | Ducksalad plant response rating (duck salad; [12]): 0 | Barnyardgrass plant response rating (bamyardgrass; [1]): 0 | Barnyardgrass plant response rating (bamyardgrass; [10]): 0 | Barnyardgrass plant response rating (bamyardgrass; [11]): 8 | Barnyardgrass plant response rating (bamyardgrass; [12]): 0
